From patent publication US12391662B2, “Lipid compounds and lipid nanoparticle compositions” (RINUAGENE BIOTECHNOLOGY CO., LTD., priority 2022, dated 2025)

Experiments:
[1] = LNP mRNA encapsulation efficiency (Quant-iT RiboGreen RNA Assay Kit); type: physicochemical; settings: LNP of Compound:cholesterol:DSPC:DMG-PEG2000=50:38.5:10:1.5 encapsulating mRNA
Protocol: (§1) The mRNA stock solution was dispersed in 20 mM acetic acid solution (pH 5.0) to give a final concentration of 200 μg/mL (aqueous phase). […] The mRNA was mixed with the lipid mixture by T-mixing and controlling the flow rate of aqueous phase and oil phase (3:1) with a total flow rate of 12-50 ml/min, to obtain LNP-encapsulated mRNA. The encapsulated LNP was diluted with buffer (pH 5.0-5.5) and then concentrated by ultrafiltration with replacement of diluent, and finally LNP was concentrated to 200 μg/mL˜600 μg/mL of mRNA, while the pH of LNP was adjusted to about 7-8. Finally, Quant-iT™ RiboGreen™ RNA Assay Kit (Invirtogen by Thermo Fisher Scientific, cat #R11490), and 10% Triton X-100 solution or 10% OTG solution as an emulsion breaker were used to detect the total and free content of mRNA in the LNP, and the encapsulation efficiency of LNP was calculated.

[2] = LNP particle size and PDI (Malvern ZetaSizer); type: physicochemical; settings: LNP of Compound:cholesterol:DSPC:DMG-PEG2000=50:38.5:10:1.5 encapsulating mRNA
Protocol: as §1, with “Finally, Quant-iT™ RiboGreen™ RNA Assay Kit (Invirtogen by Thermo Fisher Scientific, cat #R11490), and 10% Triton X-100 solution or 10% OTG solution as an emulsion breaker were used to detect the total and free content of mRNA in the LNP, and the encapsulation efficiency of LNP was calculated.” left out

rats = test: Toxicity assay: serum ALT/AST and deaths after single intravenous dose of Luciferase mRNA LNPs; type: in vivo; settings: LNP intravenous single dose 3 mg/kg; for aspartate aminotransferase and alanine aminotransferase values compared with MC3 and SM102 groups: serum 24 hours after administration, FIGS. 3A-3B; for animals that died during the test: five animals per group
Protocol: Animals were grouped according to body weight (five animals per group) one day before administration (Zhejiang Vital River Laboratory Animal Technology Co. Ltd, male, body weight: 170-220 g). […] Luciferase mRNA was encapsulated in said lipid nanoparticle compositions.
The administration volume is 10 mL/kg, and the administration dosage is 3 mg/kg.

balb/c mice = test: Extrahepatic delivery of Luciferase mRNA LNPs after intravenous injection, organ fluorescence (liver, spleen, stomach, intestine tract); type: in vivo; settings: 20 μg LNP intravenous, 24 hours, FIGS. 2A-2D, compared with MC3 and Compound 20A groups
Protocol: Five balb/c mice (Zhejiang Vital River Laboratory Animal Technology Co., Ltd, female, 6-8 weeks old, 18-20 g) were taken as a group, labeled with a black marker pen on the tail with numbers 1 # to 5 #; five mice in each group were sequentially injected intravenously with 20 μg of the lipid nanoparticle composition. The lipid nanoparticle compositions of the present invention were prepared according to Test Example 1, in which Luciferase mRNA was encapsulated. A phosphate buffered saline (PBS) group was set up in parallel as a blank control, and an MC3 group was set up as a reference (obtained by preparation according to the method and ratio of Test Example 1).
Fluorescence assay was performed for each group of mice at 24 hours after intravenous administration of the samples ([…] YEASEN,LOT:D5330150, IP, 150 mg/kg was administered 10 minutes in advance for each group), the mice were anesthetized, and then put into a small animal living optical imaging system-IVIS® Lumina LT Series III according to the orders from tail mark 1 # to 5 #. The whole-body fluorescence was detected to evaluate the delivery and the expression of the prepared Luciferase mRNA.
At the end of the test, the mice were sacrificed by cervical dislocation, and the liver, spleen, stomach, and intestine tract were harvested, and the organs were discharged according to the corresponding positions from 1 # to 5 # for fluorescence detection of the organs.

SD rats = test: Toxicity assay: clinical markers 24 hours after intravenous LNP administration; type: in vivo; settings: LNP intravenous 3 mg/kg, 24 hours after administration
Protocol: The nanoparticle samples containing different lipids were administered to rats (SD rats, Zhejiang Vital River Laboratory Animal Technology Co., Ltd, 3 males and 3 females per group, body weight: 220-300 g for female, 260-340 g for male) by intravenous injection at a dose of 3 mg/kg. The expression of various clinical markers was assessed at 24 hours after administration and compared with the expression induced by SM102 LNP formulation (i.e., LNP formulation made from the known SM102 lipid, which was prepared according to the method of Test Example 1 in the same ratio) as well as by phosphate buffered saline (PBS).

SMILES	Encapsulation Efficiency [1] [%]	PDI [2]	Particle Size [2] [nm]	aspartate aminotransferase and alanine aminotransferase values compared with MC3 and SM102 groups (rats)	extrahepatic delivery effect (balb/c mice)	Alanine transaminase (SD rats) [U/L]	Aspartate transaminase (SD rats) [U/L]	animals that died during the test (rats)
CCCCCCCCCCCOC(=O)CCCCCC1(CCCCCCCC(=O)OC(CCCCCCCC)CCCCCCCC)OCC(CN(C)C)CO1 (centres unmarked) [Compound 1]	97.22	0.1125	66.97	–	–	–	–	–
CCCCCCCCCCC(=O)OCCCCCCC1(CCCCCCCC(=O)OC(CCCCCCCC)CCCCCCCC)OCC(CN(C)C)CO1 (centres unmarked) [Compound 4]	96.23	0.1387	69.03	–	–	–	–	–
CCCCCCCCCCC(=O)OCCCCCCC1(CCCCCCCCOC(=O)C(CCCCCCCC)CCCCCCCC)OCC(CN(C)C)O1 (centres unmarked) [Compound 7]	96.52	0.1537	92.38	–	–	–	–	–
CCCCCCCCCCC(=O)OCCCCCCC1(CCCCCCCCOC(=O)C(CCCCCCCC)CCCCCCCC)OCC(CCN(C)C)O1 (centres unmarked) [Compound 8]	90.99	0.09334	99.68	–	–	–	–	–
CCCCCCCCCCC(=O)OCCCCCCC1(CCCCCCCCOC(=O)C(CCCCCCCC)CCCCCCCC)OCC(CN(C)C)CO1 (centres unmarked) [Compound 9]	95.07	0.1368	71.61	–	–	–	–	–
CCCCCCCCCCCOC(=O)CCCCCC1(CCCCCCCC(=O)OC(CCCCCCCC)CCCCCCCC)OCC(CCN(CC)CC)O1 (centres unmarked) [Compound 11]	97.5	0.06	80.34	–	–	–	–	–
CCCCCCCCCCCOC(=O)CCCCCC1(CCCCCCCC(=O)OC(CCCCCCCC)CCCCCCCC)OCC(CCN(CC)C(C)C)O1 (centres unmarked) [Compound 16]	97.6	0.03	71.68	–	–	–	–	–
CCCCCCCCCCCNC(=O)CCCCCC1(CCCCCCCC(=O)NC(CCCCCCCC)CCCCCCCC)OCC(CCN(C)C)O1 (centres unmarked) [Compound 17]	98.2	0.05	125.0	–	–	–	–	–
CCCCCCCCC(CCCCCCCC)CC(=O)CCCCCCCC1(CCCCCCCC(=O)OC(CCCCCCCC)CCCCCCCC)OCC(CCN(C)C)O1 (centres unmarked) [Compound 18]	96.5	0.10	69.23	–	–	–	–	–
CCCCCCCCCCCOC(=O)CCCCCC1(CCCCCC(=O)OCCCCCCCCCCC)OCC(CCN(C)C)O1 (centres unmarked) [Compound 19]	93.3	0.34	110.3	–	–	–	–	–
CCCCCC(CCCCC)CCOC(=O)CCCCCCCC1(CCCCCCCC(=O)OCCC(CCCCC)CCCCC)OC[C@H](CCN(C)C)O1 [Compound 20A]	92.5	0.073	85.64	–	–	–	–	all five rats in Compound 20A group died
CCCCCCCCC(CCCCCC)C(=O)OCCCCCCC1(CCCCCCOC(=O)C(CCCCCC)CCCCCCCC)OCC(CCN(C)C)O1 (centres unmarked) [Compound 21]	96.8	0.3138	92.89	–	–	–	–	–
CCCCC/C=C\C/C=C\CCCCCCCCC(CCCCCCCC/C=C\C/C=C\CCCCC)OC(=O)CCCN(C)C [MC3, reference compound]	96.7	0.15	72.70	–	–	–	–	four rats in the MC3 group died
CCCCCCCCCCCOC(=O)CCCCCN(CCO)CCCCCCCC(=O)OC(CCCCCCCC)CCCCCCCC [SM-102, reference compound]	97.5	0.07	74.80	–	–	286.51	486.42	–

The next lines start with results.

Encapsulation Efficiency [1] [%]	PDI [2]	Particle Size [2] [nm]	SMILES	aspartate aminotransferase and alanine aminotransferase values compared with MC3 and SM102 groups (rats)	extrahepatic delivery effect (balb/c mice)	Alanine transaminase (SD rats) [U/L]	Aspartate transaminase (SD rats) [U/L]	animals that died during the test (rats)
96.44	0.02967	86.26	CCCCCCCCCCCOC(=O)CCCCCC1(CCCCCCCC(=O)OC(CCCCCCCC)CCCCCCCC)OC[C@H](CCN(C)C)O1 (some centres unmarked) [Compound 2A]	lower than those of the groups of the ionizable lipids MC3 and SM102	significant extrahepatic delivery effects	–	–	–
92.32	0.03414	70.27	CCCCCCCCCCCOC(=O)CCCCCC1(CCCCCCCC(=O)OC(CCCCCCCC)CCCCCCCC)OCC(CCN(C)C)O1 (centres unmarked) [Compound 2]	–	–	116.27	342.17	–
95.04	0.1264	95.04	CCCCCCCCCCCOC(=O)CCCCCC1(CCCCCCCC(=O)OC(CCCCCCCC)CCCCCCCC)OCC(CN(C)C)O1 (centres unmarked) [Compound 3]	–	–	–	–	–
96.0	0.1311	73.41	CCCCCCCCCCC(=O)OCCCCCCC1(CCCCCCCC(=O)OC(CCCCCCCC)CCCCCCCC)OC[C@H](CCN(C)C)O1 (some centres unmarked) [Compound 5A]	lower than those of the groups of the ionizable lipids MC3 and SM102	significant extrahepatic delivery effects	–	–	–
98.4	0.04848	67.95	CCCCCCCCCCC(=O)OCCCCCCC1(CCCCCCCC(=O)OC(CCCCCCCC)CCCCCCCC)OC[C@@H](CCN(C)C)O1 (some centres unmarked) [Compound 5B]	–	–	–	–	–
94.92	0.04107	89.54	CCCCCCCCCCC(=O)OCCCCCCC1(CCCCCCCC(=O)OC(CCCCCCCC)CCCCCCCC)OCC(CCN(C)C)O1 (centres unmarked) [Compound 5]	–	–	65.72	251.10	–
95.50	0.1676	69.85	CCCCCCCCCCC(=O)OCCCCCCC1(CCCCCCCC(=O)OC(CCCCCCCC)CCCCCCCC)OCC(CN(C)C)O1 (centres unmarked) [Compound 6]	–	–	–	–	–
96.5	0.07	78.44	CCCCCCCCCCCOC(=O)CCCCCC1(CCCCCCCC(=O)OC(CCCCCCCC)CCCCCCCC)OCC(CCN(C)CC)O1 (centres unmarked) [Compound 10]	–	–	–	–	–
89.3	0.16	98.15	CCCCCCCCCCCOC(=O)CCCCCC1(CCCCCCCC(=O)OC(CCCCCCCC)CCCCCCCC)OCC(CCCN(C)C)O1 (centres unmarked) [Compound 13]	lower than those of the groups of the ionizable lipids MC3 and SM102	significant extrahepatic delivery effects	–	–	–
90.97	0.16	118.1	CCCCCCCCCCCOC(=O)CCCCCC1(CCCCCCCC(=O)OC(CCCCCCCC)CCCCCCCC)OCC(CCCCN(C)C)O1 (centres unmarked) [Compound 14]	–	–	–	–	–
97.2	0.10	61.73	CCCCCCCCCCCOC(=O)CCCCCC1(CCCCCCCC(=O)OC(CCCCCCCC)CCCCCCCC)OCC(CCN(C)CCC)O1 (centres unmarked) [Compound 15]	–	–	–	–	–
